Measured values: ChEMBL document CHEMBL1139705, “Synthesis and in vitro pharmacological studies of new C(4)-modified salvinorin A analogues” (Bioorg Med Chem Lett, 2006)

Tests used:
[1] = target: T1, Kappa-type opioid receptor (Homo sapiens, UniProt P41145); test: Displacement of [3H]diprenorphine binding from human kappa opioid receptor expressed in CHO cells; assay type: cell-based
[2] = target: T1, Kappa-type opioid receptor; test: Efficacy at human kappa opioid receptor expressed in CHO cells by [35S]GTP-gamma-S binding assay relative to U50,488H; assay type: functional, cell-based
[3] = target: T1, Kappa-type opioid receptor; test: Binding potency at human kappa opioid receptor expressed in CHO cells by [35S]GTPgammaS binding assay; assay type: functional, cell-based

T1 sequence (P41145 whole entry): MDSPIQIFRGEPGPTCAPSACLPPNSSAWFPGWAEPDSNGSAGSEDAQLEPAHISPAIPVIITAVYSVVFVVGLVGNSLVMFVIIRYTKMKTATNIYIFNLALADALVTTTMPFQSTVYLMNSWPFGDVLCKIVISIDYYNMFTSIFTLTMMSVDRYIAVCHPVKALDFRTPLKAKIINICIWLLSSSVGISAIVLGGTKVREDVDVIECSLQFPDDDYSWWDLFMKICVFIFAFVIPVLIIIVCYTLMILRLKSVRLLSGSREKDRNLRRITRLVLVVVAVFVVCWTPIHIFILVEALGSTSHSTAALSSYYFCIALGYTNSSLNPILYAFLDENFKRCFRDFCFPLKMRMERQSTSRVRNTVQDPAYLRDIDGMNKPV

Row | Structure (SMILES) | Ki [1] | Efficacy [2] | EC50 [3]
1 | CC(=O)O[C@H]1C[C@@H](COC(=O)C(C)NC(=O)OCC2c3ccccc3-c3ccccc32)[C@]2(C)CC[C@H]3C(=O)O[C@H](c4ccoc4)C[C@]3(C)[C@H]2C1=O (stereo not given in full) | > 1000 nM |  | 
2 | CC(=O)O[C@H]1C[C@@H](COCc2ccccc2)[C@]2(C)CC[C@H]3C(=O)O[C@H](c4ccoc4)C[C@]3(C)[C@H]2C1=O | > 1000 nM |  | 
3 | COC[C@@H]1C[C@H](OC(C)=O)C(=O)[C@H]2[C@@]1(C)CC[C@H]1C(=O)O[C@H](c3ccoc3)C[C@]21C | > 1000 nM |  | 
4 | COC(=O)[C@@H]1C[C@H](OC(C)=O)C(=O)[C@H]2[C@@]1(C)CC[C@H]1C(=O)O[C@H](c3ccoc3)C[C@]21C |  | 106% | 
5 | CC(=O)O[C@H]1C[C@@H](COC(=O)C(C)N(C)C(=O)OCC2c3ccccc3-c3ccccc32)[C@]2(C)CC[C@H]3C(=O)O[C@H](c4ccoc4)C[C@]3(C)[C@H]2C1=O (stereo not given in full) | > 1000 nM |  | 
6 | C=CCOC[C@@H]1C[C@H](OC(C)=O)C(=O)[C@H]2[C@@]1(C)CC[C@H]1C(=O)O[C@H](c3ccoc3)C[C@]21C | > 1000 nM |  | 
7 | CC(=O)O[C@H]1C[C@@H](c2nnnn2CCC#N)[C@]2(C)CC[C@H]3C(=O)O[C@H](c4ccoc4)C[C@]3(C)[C@H]2C1=O | > 1000 nM |  | 
8 | CC(=O)O[C@H]1C[C@@H](COC(=O)C2CC2)[C@]2(C)CC[C@H]3C(=O)O[C@H](c4ccoc4)C[C@]3(C)[C@H]2C1=O | 221 nM | 92% | 358 nM
9 | CC(=O)O[C@H]1C[C@@H](COC(=O)c2ccc(C)cc2)[C@]2(C)CC[C@H]3C(=O)O[C@H](c4ccoc4)C[C@]3(C)[C@H]2C1=O | > 1000 nM |  | 
10 | CC(=O)O[C@H]1C[C@@H](C(=O)O)[C@]2(C)CC[C@H]3C(=O)O[C@H](c4ccoc4)C[C@]3(C)[C@H]2C1=O | > 1000 nM |  | 
11 | CC(=O)OC[C@@H]1C[C@H](OC(C)=O)C(=O)[C@H]2[C@@]1(C)CC[C@H]1C(=O)O[C@H](c3ccoc3)C[C@]21C | > 1000 nM |  | 
12 | C#CCC(=O)OC[C@@H]1C[C@H](OC(C)=O)C(=O)[C@H]2[C@@]1(C)CC[C@H]1C(=O)O[C@H](c3ccoc3)C[C@]21C | > 1000 nM |  | 
13 | CC(=O)O[C@H]1C[C@@H](C=O)[C@]2(C)CC[C@H]3C(=O)O[C@H](c4ccoc4)C[C@]3(C)[C@H]2C1=O | > 1000 nM |  | 
14 | CC(=O)O[C@H]1C[C@@H](COC(=O)C(NC(=O)OCC2c3ccccc3-c3ccccc32)c2ccccc2)[C@]2(C)CC[C@H]3C(=O)O[C@H](c4ccoc4)C[C@]3(C)[C@H]2C1=O (stereo not given in full) | > 1000 nM |  | 
15 | CC(=O)O[C@H]1C[C@@H](COC(=O)Cc2ccccc2)[C@]2(C)CC[C@H]3C(=O)O[C@H](c4ccoc4)C[C@]3(C)[C@H]2C1=O | > 1000 nM |  | 
16 | COCCOCC(=O)OC[C@@H]1C[C@H](OC(C)=O)C(=O)[C@H]2[C@@]1(C)CC[C@H]1C(=O)O[C@H](c3ccoc3)C[C@]21C | 613 nM | 98% | 210 nM
17 | CCOC[C@@H]1C[C@H](OC(C)=O)C(=O)[C@H]2[C@@]1(C)CC[C@H]1C(=O)O[C@H](c3ccoc3)C[C@]21C | > 1000 nM |  | 
18 | CC(=O)O[C@H]1C[C@@H](COC(=O)c2ccc(Br)cc2)[C@]2(C)CC[C@H]3C(=O)O[C@H](c4ccoc4)C[C@]3(C)[C@H]2C1=O | > 1000 nM |  | 
19 | CC(=O)O[C@H]1C[C@@H](COC(=O)c2ccc(F)cc2)[C@]2(C)CC[C@H]3C(=O)O[C@H](c4ccoc4)C[C@]3(C)[C@H]2C1=O | > 1000 nM |  | 
20 | C/C=C/C(=O)OC[C@@H]1C[C@H](OC(C)=O)C(=O)[C@H]2[C@@]1(C)CC[C@H]1C(=O)O[C@H](c3ccoc3)C[C@]21C | > 1000 nM |  | 
21 | COCCOCC(=O)OC[C@@H]1C[C@H](OC(C)=O)C(=O)[C@H]2[C@@]1(C)CC[C@@H]1C(=O)O[C@H](c3ccoc3)C[C@]21C | > 1000 nM |  | 
22 | CC(=O)O[C@H]1C[C@@H](COC(=O)c2cccc(F)c2)[C@]2(C)CC[C@H]3C(=O)O[C@H](c4ccoc4)C[C@]3(C)[C@H]2C1=O | > 1000 nM |  | 
23 | CC(=O)O[C@H]1C[C@@H](CO)[C@]2(C)CC[C@H]3C(=O)O[C@H](c4ccoc4)C[C@]3(C)[C@H]2C1=O | 43.4 nM | 107% | 20.7 nM
24 | CC(=O)O[C@H]1C[C@@H](COC(=O)CNC(=O)OCC2c3ccccc3-c3ccccc32)[C@]2(C)CC[C@H]3C(=O)O[C@H](c4ccoc4)C[C@]3(C)[C@H]2C1=O | > 1000 nM |  | 
